# Patent US20100273167A1, “METHODS FOR DETERMINING PRENATAL ALCOHOL EXPOSURE” (priority 2009, published 2010)
# Several values for one entry are separate records, joined by “and”; a condition that tells them apart may be missing. Identical values can stand only once. Like-named read-outs stand apart in the source and are kept apart here.
# Tests used:
# [1] = tested on: Human AFSC gene expression; settings: 100 mM ethanol, 48 hours
# Method: Microarray Analyses. Two microarray analyses were performed on AFSC sealed with parafilm for 48 hours with or without 100 mM of ethanol. Fragmented antisense cRNA was used for hybridizing to human U133 A arrays (Affymetrix, Inc. Santa Clara, Calif., USA) at the Core Genomic Facility of Wake Forest University School of Medicine.
# Raw CEL files were provided by the Microarray Core Facility of the Wake Forest University School of Medicine and were then analyzed with a software package AffylmGUI (Affymetrix LIMMA, Linear Models for Microarray Data, Graphical User Interfaces) (Wettenhall et al., limmaGUI: a graphical user interface for linear modeling of microarray data. Bioinformatics. 2004; 20:3705-3706; Wettenhall et al., affylmGUI: a graphical user interface for linear modeling of single channel microarray data. Bioinformatics. 2006; 22:897-899). Within AffylmGUI, gene expression values were summarized with RMA. RMA adjusts for background noise, performs a quantile normalization, transforms the data into log base 2, and then summarizes the multiple probes into one intensity (Bolstad et al., A comparison of normalization methods for high density oligonucleotide array data based on variance and bias. Bioinformatics. 2003; 19:185-193; Irizarry et al., Exploration, normalization, and summaries of high density oligonucleotide array probe level data. Biostatistics. 2003; 4:249-264; Irizarry et al., Summaries of Affymetrix GeneChip probe level data. Nucleic Acids Res. 2003; 31:e15). Quantification of relative differences in gene expression among the groups of interest was accomplished using AffylmGUI, the sister package of limmaGUI (Wettenhall et al., limmaGUI: a graphical user interface for linear modeling of microarray data. Bioinformatics. 2004; 20:3705-3706; Wettenhall et al., affylmGUI: a graphical user interface for linear modeling of single channel microarray data. Bioinformatics. 2006; 22:897-899). AffylmGUI reads the raw Affymetrix CEL files directly, summarizes the gene expression values using RMA, and then uses LIMMA to identify statistically significant differences in gene expression (Smyth, Linear models and empirical bayes methods for assessing differential expression in microarray experiments. Stat Appl Genet Mol Biol. 2004; 3:Article3). LIMMA fits a linear model for every gene (like ANOVA or multiple regression analysis), and adjusts P values for multiple testings (Smyth, Linear models and empirical bayes methods for assessing differential expression in microarray experiments. Stat Appl Genet Mol Biol. 2004; 3:Article3). Differentially expressed genes were identified with a fold change >1.8.
# To uncover enriched processes, data sets were analyzed by DAVID (Database for Annotation, Visualization and Integrated Discovery), a web-based tool that provides statistical methods for identifying over-represented biological themes and pathways within diverse and disparate gene lists (Dennis et al., DAVID: Database for Annotation, Visualization, and Integrated Discovery. Genome Biol. 2003; 4:3). DAVID also identifies over-represented biological themes in terms of their Gene Ontology (GO) terms and provides tools to visualize the distribution of genes on BioCarta and KFGG pathway maps. (Ashburner et al., Gene ontology: tool for the unification of biology. The Gene Ontology Consortium. Nat Genet. 2000; 25:25-29). GO provides consistent descriptions of genes in terms of biological processes and molecular function. Gene-enrichment analysis computes a modified Fisher exact p-value by comparing the ontological themes identified in our data set to total possible ontological processes present on the U133A chip.
# c-kit = settings: in vitro alcohol exposure of AFSC
# osteopontin = settings: 100 mM ethanol
# Method: Total RNA was isolated from AFSC using PerfectPure RNA Cultured Cell Kit (5 Prime) in accordance with the manufacturer's protocol. Following the procedure, DNA digestion was included as recommended by the supplier to eliminate the contamination of genomic DNA. Quality of total RNA was assessed by the spectrophotometric ratio of 260/280. For the reverse-transcriptase reaction, SuperscriptII reverse transcription reagents (Invitrogen) were used. Briefly, 1 μg of RNA was converted to cDNA. PCR amplification was performed with TaqMan Universal Master Mix (Applied Biosystems). Reactions were performed in duplicate, containing 1 μl of cDNA, 1.25 μl probe, 12 μl Master Mix, 10 μl DI H20 and were analyzed in a 96-well optical reaction plate (Applied Biosystems). Reactions were amplified and quantified using an ABI 7700 sequence detectors and manufacturer's software (Applied Biosystems). On demand fluorescent probes for the following genes: β-actin and osteopontin. The threshold cycle (Ct) indicates the fractional cycle number at which the amount of amplified target reaches a defined threshold. ΔCt was obtained by subtracting the Ct values of endogenous controls (β-actin) from the Ct values of the target genes.
# Human AFSC [2] = settings: 48 hours
# Method: Human AFSC were seeded at 3,000 cells/cm^2 and maintained in culture as described previously (De Coppi et al., Isolation of amniotic stem cell lines with potential for therapy. Nat Biotechnol. 2007; 25:100-106). AFSC were grown in α-MEM medium (Gibco, Invitrogen) containing 15% ES-FBS, 1% glutamine, and 1% penicillin/streptomycin (Gibco), supplemented with 18% Chang B and 2% Chang C (Irvine Scientific) at 37° C. with 5% CO2 atmosphere. For dose-dependent studies on cell growth and viability, AFSC were treated with 25 mM, 50 mM, 75 mM, and 100 mM ethanol (Sigma-Aldrich, St. Louis, Mo.), and sealed with parafilm with media being replaced every 24 hours.
# Forty-eight hours after seeding, ethanol was added to the media and parafilm sealed to prevent evaporation. Control groups were not treated with ethanol but otherwise treated identically. Proliferation rate was determined by measuring the number of AFSC after 48 hours of various ethanol concentrations. Cell number was measured using a Coulter counter. Cell viability was determined by propidium iodine (PI) exclusion. AFSC were dissociated by 0.05% trypsin/EDTA (Gibco), centrifuged at 1,500 RPM for 5 minutes, and resuspended in 1 ml of PBS in 15 ml polypropylene tubes. 50 μl of PI, […], was added to each tube and incubated for 1 hour at room temperature. Cells were centrifuged, supernatant removed, and washed twice with a wash buffer. Samples were analyzed by flow cytometry using the FL-1 channel.
# Human AFSC [3] = settings: 25 mM to 100 mM ethanol
# Method: Forty-eight hours after seeding, ethanol was added to the media and parafilm sealed to prevent evaporation. Control groups were not treated with ethanol but otherwise treated identically. […] Cell number was measured using a Coulter counter. Cell viability was determined by propidium iodine (PI) exclusion. AFSC were dissociated by 0.05% trypsin/EDTA (Gibco), centrifuged at 1,500 RPM for 5 minutes, and resuspended in 1 ml of PBS in 15 ml polypropylene tubes. 50 μl of PI, a nucleotide analogue, was added to each tube and incubated for 1 hour at room temperature. Cells were centrifuged, supernatant removed, and washed twice with a wash buffer. Samples were analyzed by flow cytometry using the FL-1 channel.
# [4] = over a period of 24 hours, parafilm sealed
# Human AFSC [5] = tested on: Human AFSC
# Method: (§1) Human AFSC were induced to differentiate into osteogenic cell types as described previously (De Coppi et al., Isolation of amniotic stem cell lines with potential for therapy. Nat Biotechnol. 2007; 25:100-106). Briefly, AFSC was cultured in DMEM low glucose with 10% FBS supplemented with 100 nM dexamethasone (Sigma-Aldrich), 10 mM beta-glycerophosphate (Sigma-Aldrich) and 0.05 mM ascorbic acid-2-phosphate (Wako Chemicals, Irving, Tex.). Cells were grown to confluency and then treated with ethanol for the first 48 hours of osteogenic differentiation to control for ethanol's antiproliferative effect. Cell number was determined after 24 and 48 hours of ethanol and bone differentiation.
# [6] = tested on: alkaline phosphatase activity in AFSC; settings: 100 mM ethanol at day 8 (midpoint) of osteogenic differentiation for 48 hours
# Method: as §1
# Alkaline phosphatase activity was measured using p-nitrophenyl phosphate liquid substrate system (Sigma). Cells grown in 24-well plates were rinsed in PBS and incubated with 0.15% Triton X-100 for 30 mins. Two hundred uL of p-nitrophenyl phosphate solution was added to the Triton-X 100 solution. Cells were incubated in the dark for 1 hour and read spectrophotometrically at 405 nm.
compound,measurement,setting,value
CCO [ethanol],Basic fibroblast growth factor/FGF2 expression fold change,[1]; growth media,−2.0 fold change
same,number of genes down-regulated in response to ethanol,[1]; growth media,16 genes
same,number of genes up-regulated in response to ethanol,[1]; growth media,65 genes
same,Count of down-regulated genes: anatomical structure development,[1]; gene ontology category,6
same,Count of down-regulated genes: circulatory system process,[1]; gene ontology category,3
same,Count of down-regulated genes: embryonic development,[1]; gene ontology category,3
same,Count of down-regulated genes: glucose transport,[1]; gene ontology category,2
same,Count of down-regulated genes: multi-organism process,[1]; gene ontology category,3
same,Count of down-regulated genes: negative regulation of cellular process,[1]; gene ontology category,6
same,Count of down-regulated genes: regulation of biological quality,[1]; gene ontology category,4
same,Count of up-regulated genes: IGF receptor signaling pathway,[1]; gene ontology category,2
same,Count of up-regulated genes: biomineral & ossification,[1]; gene ontology category,5
same,Count of up-regulated genes: blood vessel morphogenesis,[1]; gene ontology category,4
same,Count of up-regulated genes: developmental process,[1]; gene ontology category,17
same,Count of up-regulated genes: organ development,[1]; gene ontology category,12
same,Count of up-regulated genes: organ morphogenesis,[1]; gene ontology category,7
same,Count of up-regulated genes: reproductive developmental process,[1]; gene ontology category,4
same,Count of up-regulated genes: skeletal development,[1]; gene ontology category,5
same,Count of up-regulated genes: system development,[1]; gene ontology category,13
same,Count of up-regulated genes: tyrosine kinase signaling pathway,[1]; gene ontology category,4
same,effect on c-kit expression,c-kit,does not appear to affect c-kit expression
same,increase in mRNA expression of osteopontin,"osteopontin; 24 hours, growth media, vs control AFSC",2.2 fold
same,increase in mRNA expression of osteopontin,"osteopontin; 24 hours, osteogenic media",2 fold
same,increase in mRNA expression of osteopontin,"osteopontin; 48 hours, growth media, vs control AFSC",2.8 fold change
same,reduction in proliferation rate,"Human AFSC [2]; 25 mM ethanol, relative to cells without ethanol",22%
same,reduction in the rate of proliferation,"Human AFSC [2]; 100 mM ethanol, relative to cells without ethanol",33%
same,effect on rate of proliferation,Human AFSC [2]; 25-100 mM ethanol,dose-dependent reduction in the rate of proliferation
same,effect on cell viability,Human AFSC [3],did not have a significant effect on cell viability
same,ethanol concentration present in the culture media,[4],did not change
same,calcium deposition,"Human AFSC [5]; 100 mM ethanol during first 48 hours of osteogenic differentiation, day 23, non-exposed AFSC 77.40±26.85",155.06 ± 75.85 µg/mL and 155.1 ± 75.8 µg/mL
same,effect on cell number,"Human AFSC [5]; cells grown to confluency, 24 and 48 hours of ethanol and bone differentiation (data not shown)",no effect on cell number
same,effect on alkaline phosphatase activity,[6],no statistically significant effect on alkaline phosphatase activity
